Measured values as given in US9611276B2, “Imidazo bicyclic iminium compounds as antitumor agents” (THE BOARD OF TRUSTEES OF THE LELAND STANFORD JUNIOR …, priority 2012, dated 2017).
Read-outs that look alike come from different tables or passages of the source. Blank lines part the entries; values can stand above or below the molecule they belong to.

Columns and labels:
[1] = test system: Hh pathway activity; experiment: Sufu-KO-LIGHT cell assay, Gli-dependent firefly luciferase reporter; format: cell-based, mouse; details: Mus musculus
Protocol: Sufu-KO-LIGHT cells were derived from Sufu knockout mouse embryonic fibroblasts according to the method of Chen et al. [Genes Dev. 2009; 23(16):1910-28.] The cells were co-transfected with the zeocin resistance vector (pVgRXR, Invitrogen) and a firefly luciferase reporter driven by eight Gli binding sites and a γ-crystallin basal promoter (8XGliBS-FL) [see Sasaki et al. Development. 1997; 124(7):1313-22.2]. […] Sufu-KO-LIGHT cells were cultured in DMEM (Invitrogen, 11965) containing 10% (v/v) fetal bovine serum (Invitrogen, No. 26140), 150 μg/mL zeocin (Invitrogen, R250-01), 1 mM sodium pyruvate (Invitrogen, 11360) and 1× PenStrep (Gibco, 15140).
All test compounds were dissolved in DMSO at 50 mM, serially diluted by 1:3, 1:4 or 1:5 in a 96-well translucent microplate (Greiner bio-one, 650201) and stored at −20° C. These serial dilutions were added to assay media freshly with final DMSO concentration of 0.2% (v/v).
The Sufu-KO-LIGHT cell assay provides a measure of Hh pathway activity and cytotoxicity. Sufu-KO-LIGHT cells were seeded into a 96-well plate (35,000 cells/well), cultured to confluency for 24 hrs and then incubated with test compounds in DMEM without phenol red (Invitrogen, 26140) containing 0.5% (v/v) fetal bovine serum (Invitrogen, No. 26140), 150 μg/mL zeocin (Invitrogen, R250-01), 1 mM sodium pyruvate (Invitrogen, 11360), 1× PenStrep (Gibco, 15140) for 16 hrs. Bright Glo (Promega, E2620) reagent (50 μL/well) was added to the cells, and luciferase activities were determined on a microplate luminometer (Veritas). To assess cytotoxicity, after 15 hrs of incubation with test compounds, CellTiter 96 AQueous One Solution Cell Proliferation Assay (Promega, G3580) reagent (20 μL/well) was added. Cell viability was determined by measuring absorption at 490 nm after 1 hr of incubation on a microplate spectrophotometer (Benchmark Plus, Bio-Rad). Biological triplicates were analyzed for each test compounds.

[2] = biological target: T1, Smo (Mus musculus, UniProt P56726); experiment: Smo trafficking assay in NIH 3T3 cells; format: cell-based; details: Hh-responsive cells, ShhN stimulation
T1 construct: endogenous in cells; host or cells: NIH 3T3
Description: The cells were imaged using a Plan Apochromat 63×/1.4-0.6 oil immersion objective on an upright Leica DM4500B compound microscope.

[3] = test system: Gli2; experiment: Gli2 trafficking assay in NIH 3T3 cells; format: cell-based; details: ShhN treatment
Protocol: NIH 3T3 cells were also employed in an assay to quantify Gli2 trafficking NIH-3T3 cells were seeded into 24-well plates containing poly-D-lysine-coated 12-mm glass coverslips (65,000 cells/well) and cultured for 24 hrs. […] Each compound or vehicle treatment was conducted in biological triplicates in the presence or absence of 10% (v/v) ShhN-conditioned medium. The cells were subsequently fixed in PBS containing 4% (v/v) paraformaldehyde for 12 min at room temperature, washed three times with PBS, permeabilized in PBS containing 0.5% (v/v) Triton X-100 for 5 min, and washed again twice in PBS. […] After three PBS washes, the coverslips were mounted onto slides using Prolong Gold Antifade Reagent with DAPI (Invitrogen, P36931). The cells were imaged using a Plan Apochromat 63×/1.4-0.6 oil immersion objective on an upright Leica DM4500B compound microscope. Ciliary Gli2 levels were quantified by determining total pixel intensity within a circular region manually placed at the distal end of each cilium and subtracting background fluorescence in an adjacent region of equivalent size. A total of 30 cilia from three coverslips were analyzed to determine the average ciliary Gli2 level for each experimental condition as a measure of Gli2 trafficking.

[4] = test system: BCC cell line; experiment: Murine basal cell carcinoma (BCC) cell proliferation; format: cell-based, mouse
Description: (§1) Murine basal cell carcinomas (BCCs) were derived from Ptch1+/−; p53−/− mice subjected to UV radiation [Aszterbaum et al., Nat. Med. (1999) 5:1285-91]. A line resistant to the Smo antagonist SANT-1 was obtained by culturing the cells in media containing increasing concentrations of the inhibitor until the majority of cells were killed and resistant clones emerged.

[5] = test system: SANT-1-resistant BCC line; experiment: Proliferation of SANT-1-resistant BCC line; format: cell-based, mouse
Description: as §1

[6] = test system: BCC allograft tumors; experiment: Murine BCC allograft model; format: in vivo, mouse; details: 0.01% solution, topical, day 14
Protocol: Murine BCC allograft model: Ptch1+/−; K14:Cre-ER2; p53fl/fl mice were injected with tamoxifen (to knock out p53) at six weeks of age, and at 8 weeks of age they were given one dose of 4 Gy of ionizing radiation. After BCCs formed and grew to 5-7 mm in diameter (typically between 6-8 months of age), they were harvested and dissociated to prepare a cell suspension. A mixture of the cell suspension and Matrigel was then injected subcutaneously into NOD/SCID mice purchased from Jackson Laboratories. Once the allografted tumors became visible, they were monitored with digital calipers and the volume was estimated by the formula (d^2)*D/2, where d is the smallest diameter of the tumor and D is the largest diameter. The compound was applied topically to the tumor as a DMSO solution (100 μL per application).

[7] = test system: medulloblastoma allograft tumors; experiment: Murine medulloblastoma allograft model; format: in vivo, mouse; details: 2 mg/kg/day, intraperitoneal, day 5
Protocol: Murine medulloblastoma allograft model: Ptch1+/−; p53+/−; Math1:GFP mice were mated to generate pups with the appropriate genotype of Ptch1+/−; p53−/−; Math1:GFP. These mice will get medulloblastoma tumors when they are 6 to 10 weeks of age. The primary medulloblastoma tumors were harvested, dissected, dissociated by papain treatment and tissue trituration, and injected into the flanks of nude mice as a Matrigel mixture (50 μL of 2×10^7 tumor cells mixed with 50 μL of Matrigel). Secondary and tertiary tumors can subsequently be derived from these allografts as necessary. The length, width, and depth of each allograft were monitored, and compound testing began when the tumors reached a volume of 150 mm3 (approximately one week after tumors were first visible). The compounds were dissolved in a minimum volume of DMSO, and the DMSO solution was mixed with sterile corn oil so that the DMSO constituted less than 10% of the total volume. The drug was administered by intraperitoneal injection (50 μL), with each daily dose divided into two portions and administered at 12-hour intervals. The Smoothened antagonist vismodegib was administered at 50 mg/kg/day as a positive control.

[8] = Table 3, assay not given, read-out: IC50
[9] = Table 1, assay not given, A-1 value equals the Sufu-KO-LIGHT value, read-out: IC50
[10] = Table 2, assay not given, read-out: IC50

T1 sequence (P56726 33-793): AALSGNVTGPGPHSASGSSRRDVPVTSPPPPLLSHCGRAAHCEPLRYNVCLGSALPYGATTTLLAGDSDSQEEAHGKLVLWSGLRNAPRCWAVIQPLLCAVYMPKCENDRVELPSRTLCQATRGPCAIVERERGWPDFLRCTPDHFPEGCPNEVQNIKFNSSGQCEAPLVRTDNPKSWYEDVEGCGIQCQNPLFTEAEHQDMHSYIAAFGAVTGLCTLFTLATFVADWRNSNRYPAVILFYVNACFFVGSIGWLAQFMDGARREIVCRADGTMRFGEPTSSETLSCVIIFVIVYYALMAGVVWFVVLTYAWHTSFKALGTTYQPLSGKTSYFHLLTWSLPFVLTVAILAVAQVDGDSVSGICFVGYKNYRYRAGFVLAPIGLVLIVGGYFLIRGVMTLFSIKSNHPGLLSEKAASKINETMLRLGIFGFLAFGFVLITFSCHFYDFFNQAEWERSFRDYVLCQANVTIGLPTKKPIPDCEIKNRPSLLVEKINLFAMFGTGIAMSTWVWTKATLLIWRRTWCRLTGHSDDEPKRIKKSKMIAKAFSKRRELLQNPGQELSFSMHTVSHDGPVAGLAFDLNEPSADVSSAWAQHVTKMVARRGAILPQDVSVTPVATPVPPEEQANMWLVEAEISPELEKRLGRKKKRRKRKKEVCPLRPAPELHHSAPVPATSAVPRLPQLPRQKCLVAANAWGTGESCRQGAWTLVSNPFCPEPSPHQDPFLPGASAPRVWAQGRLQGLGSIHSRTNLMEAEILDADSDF

Structure (SMILES): FC(F)Oc1ccc(-[n+]2cc(-c3ccc(Cl)cc3)n3c2CCCCC3)cc1 [Compound A-13]
IC50 [1, 9]: 17.5 µM

Structure (SMILES): Brc1ccc(-c2c[n+](-c3ccc4c(c3)OCCO4)c3n2CCCCC3)cc1 [Compound A-4]
IC50 [1]: 5 µM

Structure (SMILES): CCc1ccc(-[n+]2cc(-c3ccc(OC(F)F)cc3)n3c2CCCCC3)cc1 [Compound A-17]
IC50 [1, 9]: 2.9 µM

Structure (SMILES): FC(F)(F)c1cccc(-[n+]2cc(-c3ccc(Br)cc3)n3c2CCCCC3)c1 [Compound A-5]
IC50 [1]: 12.3 µM

Structure (SMILES): CC1=C2C[C@H]3[C@@H](CC=C4C[C@@H](O)CC[C@@]43C)[C@@H]2CC[C@]12O[C@@H]1C[C@H](C)CN[C@H]1[C@H]2C [cyclopamine, reference compound]
Effect on Smo localization / trafficking [2]: alters Smo trafficking | Effect on ShhN-induced Gli2 accrual at the ciliary distal tip [3]: cyclopamine-sensitive

Structure (SMILES): CCOc1ccc(-c2c[n+](-c3ccccc3OC)c3n2CCCCC3)cc1 [Compound A-18]
IC50 [1, 9]: 0.08 µM

Structure (SMILES): COc1ccc(-[n+]2cc(-c3ccc(OC(F)F)cc3)n3c2CCCCC3)cc1 [Compound A-12]
IC50 [1, 9]: 13.9 µM

Structure (SMILES): CCOc1ccc(-[n+]2cc(-c3ccc(OC)cc3)n3c2CCCCC3)cc1 [Compound A-10]
IC50 [1, 9]: 2.5 µM

Structure (SMILES): CCOc1ccc(-[n+]2cc(-c3ccc(-c4ccccc4)cc3)n3c2CCCCC3)cc1 [Compound A-8]
IC50 [1, 9]: 0.19 ± 0.14 µM | Proliferation of original BCC cell line [4]: able to block the proliferation | BCC proliferation ([4]; 750 nM, dose-dependent): 20 % of control | Proliferation of SANT-1-resistant line [5]: able to block the proliferation | Tumor volume compared to control [6]: reduced tumor volume by half

Structure (SMILES): CCOc1ccc(-[n+]2cc(-c3ccccc3)n3c2CCCCC3)cc1 [Compound A-9]
IC50 [1, 9]: 1.7 µM

Structure (SMILES): Brc1ccc(-c2c[n+](-c3ccccc3)c3n2CCCCC3)cc1 [Compound A-2]
IC50 [1]: 7.9 µM

Structure (SMILES): COc1ccc(-[n+]2cc(-c3ccc(Cl)cc3)n3c2CCCCC3)cc1 [Compound A-11]
IC50 [1, 9]: 2.5 µM

Structure (SMILES): CCOc1ccc(-[n+]2cc(-c3ccc(Cl)cc3)n3c2CCCCC3)cc1 [Compound A-7]
IC50 [1, 9]: 3 µM

Structure (SMILES): Clc1ccc(-[n+]2cc(-c3ccc(Br)cc3)n3c2CCCCC3)cc1 [Compound A-6]
IC50 [1]: 11.7 µM

Structure (SMILES): COc1ccccc1-[n+]1cc(-c2ccc(-c3ccccc3)cc2)n2c1CCCCC2 [Compound A-19]
IC50 [1, 9]: 0.03 µM

Structure (SMILES): CCOc1ccc(-c2c[n+](-c3cccc(C(F)(F)F)c3)c3n2CCCCC3)cc1 [Compound A-16]
IC50 [1, 9]: 7.4 µM

Structure (SMILES): COc1ccc(-c2c[n+](-c3ccc(Br)cc3)c3n2CCCCC3)cc1 [Compound A-15]
IC50 [1]: 3.3 µM

Structure (SMILES): COc1ccccc1-[n+]1cc(-c2ccc(Br)cc2)n2c1CCCCC2 [Compound A-3]
IC50 [1]: 0.34 µM

Now from value to molecule, other results behind:

IC50 [1, 8]: 14.1 µM
Structure (SMILES): COc1ccc(-c2c[n+](-c3ccc(OC)cc3)c3n2CCOC3)cc1 [Compound D-6]

IC50 [1, 10]: 4.2 µM
Structure (SMILES): COc1ccc(-c2cn3c([n+]2-c2ccc(C)cc2)CCCCC3)cc1 [Compound C-3]

IC50 [1, 10]: 1.6 µM
Structure (SMILES): CCOc1ccc(-[n+]2c(-c3ccc(OC)cc3)cn3c2CCCCC3)cc1 [Compound C-1]

IC50 [1, 8]: 2.4 µM
Structure (SMILES): COc1ccc(-[n+]2cc(-c3ccc(Cl)cc3)n3c2SCCC3)cc1 [Compound D-5]

IC50 [1, 8]: 2.6 µM
Structure (SMILES): COc1ccc(-[n+]2cc(-c3ccc(Br)cc3)n3c2SCC3C)cc1 [Compound D-4]

IC50 [1, 10]: 3.1 µM
Structure (SMILES): COc1ccc(-c2cn3c([n+]2-c2ccccc2OC)CCCCC3)cc1 [Compound C-2]

IC50 [1, 10]: 6.3 µM
Structure (SMILES): COc1ccc(-[n+]2c(-c3ccc(OC(F)F)cc3)cn3c2CCCCC3)cc1 [Compound C-7]

IC50 [1, 10]: 11.7 µM
Structure (SMILES): COc1ccc(-[n+]2c(-c3ccc(Cl)cc3)cn3c2CCCCC3)cc1 [Compound C-6]

IC50 [1, 8]: 1.1 µM
Structure (SMILES): COc1ccc(-[n+]2cc(-c3ccc(C)cc3)n3c2SC(C)C3)cc1 [Compound D-3]

IC50 [1, 10]: 1.2 µM
Structure (SMILES): CCOc1ccc(-c2c(C)n3c([n+]2-c2ccc(OCC)cc2)CCCCC3)cc1 [Compound C-5]

IC50 [1, 10]: 4.1 µM
Structure (SMILES): COc1ccc(-[n+]2c(-c3ccccc3)cn3c2CCCCC3)cc1 [Compound C-8]

IC50 [1, 10]: 11.5 µM
Structure (SMILES): COc1ccc(-c2cn3c([n+]2-c2ccc(Cl)cc2)CCCCC3)cc1 [Compound C-4]

IC50 [1, 8]: 0.96 µM
Structure (SMILES): CCOc1ccc(-[n+]2cc(-c3ccccc3)n3c2CCC3)cc1 [Compound D-1]

IC50 [1, 8]: 0.14 µM
Structure (SMILES): CCOc1ccc(-c2c[n+](-c3ccc(OC)cc3)c3n2-c2ccccc2CC3)cc1.[Br-] [Compound E-1]
Tumor volume compared to control [7]: reduced tumor volume by half

IC50 [1, 10]: 27 µM
Structure (SMILES): Clc1ccc(-c2cn3c([n+]2-c2ccc(Cl)cc2)CCCCC3)cc1 [Compound C-9]

IC50 [1, 8]: 3.1 µM
Structure (SMILES): COc1ccc(-c2c[n+](-c3ccc(OC)cc3)c3n2CCS3)cc1 [Compound D-2]
